Our source for the AC50 and IC50 values is US12606541B2, “PPARg modulators and methods of use” (Eisai R&D Management Co., Ltd., priority 2020, dated 2026).

The target in assay [1] is T1, His6-TEV-PPARγ-(234-505) (Homo sapiens, UniProt P37231).
T1 construct: The His6-TEV-PPARγ-(234-505) protein for assay was expressed and purified; TEV cleavage site (N); made in house
T1 sequence (P37231 234-505): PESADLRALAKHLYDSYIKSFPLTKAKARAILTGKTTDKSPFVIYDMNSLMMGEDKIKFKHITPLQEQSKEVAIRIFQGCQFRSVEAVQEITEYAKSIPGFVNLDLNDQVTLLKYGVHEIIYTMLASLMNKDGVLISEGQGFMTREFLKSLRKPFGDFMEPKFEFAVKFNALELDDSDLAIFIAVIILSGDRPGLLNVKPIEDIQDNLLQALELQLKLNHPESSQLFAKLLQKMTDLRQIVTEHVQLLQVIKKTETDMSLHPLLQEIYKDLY
In words: TR-FRET Assay to Measure Co-R Peptide Recruitment to PPARγ. The format is biochemical. The note with it: Co-R peptide (SMRT-ID2) recruitment; top final concentration 20 μM; read-out: TR-FRET i-Ag; AC50. Put shortly: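 Corepressor recruitment is measured by adding terbium-labeled anti-His antibody and FITC SMRT-ID2 peptide, at 5 and 200 nM final, after a 20-minute room-temperature protein–compound incubation. After one further hour, signal is converted to percent response between DMSO and 500 nM T0070907 wells.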
On the technique in general: TR-FRET usually uses a lanthanide donor and a delayed reading to cut background.

In assay [2] the test system is UM-UC-9 engineered cells. Put plainly: Cell proliferation / short-term viability assay, CellTiter-Glo 144 h. The format is cell-based, human. The note with it: Homo sapiens, UM-UC-9, 144 h, read-out: CTGlo 144 h UMUC9.5, G150. Put shortly: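 Viability read by CellTiter-Glo 2.0 luminescence at day 7 versus DMSO-vehicle wells and a T0 plate measured on day 0. Cells: UM-UC-9 engineered assay-ready stocks, 500 cells/well in high-glucose DMEM with 10% FBS, 37° C, 5% CO2.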
For orientation: Cellular ATP, detected with luciferase, serves as a proxy for viable cell number.

Structures are written as SMILES.

As for `COc1cc(-c2cc(C(=O)N3CCC(C(=O)NCc4ccc5cc[nH]c5n4)CC3)n[nH]2)c(Cl)cn1` [Example 226, N-((1H-pyrrolo[2,3-b]pyridin-6-yl)methyl)-1-(5-(5-chloro-2-methoxypyridin-4-yl)-1H-pyrazole-3-carbonyl)piperidine-4-carboxamide], in assay [1], the AC50 was 42.8 nM. The IC50 in assay [2] amounted to 427 nM.
Consider `COc1cc(-c2cc(C(=O)N3CCC(C(=O)NCc4ccc5oc(=O)n(C)c5c4)CC3)n[nH]2)c(Cl)cn1` [Example 228, 1-(5-(5-chloro-2-methoxypyridin-4-yl)-1H-pyrazole-3-carbonyl)-N-((3-methyl-2-oxo-2,3-dihydrobenzo[d]oxazol-5-yl)methyl)piperidine-4-carboxamide], for which, in assay [1], the AC50 was 490 nM. The IC50 in assay [2] is over 10000 nM.
Turning to `COc1cc(-c2cc(C(=O)N3CCC(C(=O)NCc4ccc5cnn(C)c5c4)CC3)n[nH]2)c(Cl)cn1` [Example 229, 1-(5-(5-chloro-2-methoxypyridin-4-yl)-1H-pyrazole-3-carbonyl)-N-((1-methyl-1H-indazol-6-yl)methyl)piperidine-4-carboxamide], the AC50 in assay [1] amounted to 70.6 nM. Further, the IC50 in assay [2] was determined as 614 nM.
Regarding `COc1cc(-c2cc(C(=O)N3CCC(C(=O)NCC45CC(CCO4)C5)CC3)n[nH]2)c(Cl)cn1` [Example 230], in assay [1], the AC50 is 134 nM. Besides, the IC50 in assay [2] amounted to 697 nM.
Take `COc1cc(-c2cc(C(=O)N3CCC(C(=O)NCc4cnc5c(cnn5C)c4)CC3)n[nH]2)c(Cl)cn1` [Example 232, 1-(5-(5-chloro-2-methoxypyridin-4-yl)-1H-pyrazole-3-carbonyl)-N-((1-methyl-1H-pyrazolo[3,4-b]pyridin-5-yl)methyl)piperidine-4-carboxamide]: the AC50 in assay [1] came out at 516 nM. Also, in assay [2], the IC50 was 2150 nM.
The like results for `COc1cc(-c2cc(C(=O)N3CCC(C(=O)N[C@H]4CCOc5ccc(C#N)cc54)CC3)n[nH]2)c(Cl)cn1` [Example 233, (S)-1-(5-(5-chloro-2-methoxypyridin-4-yl)-1H-pyrazole-3-carbonyl)-N-(6-cyanochroman-4-yl)piperidine-4-carboxamide] were, in that order, 196 nM and 3430 nM.
For the compound `COc1cc(-c2cc(C(=O)N3CCC(C(=O)NCc4ccc5c(c4)CC(=O)N5C)CC3)n[nH]2)c(Cl)cn1` [Example 235, 1-(5-(5-chloro-2-methoxypyridin-4-yl)-1H-pyrazole-3-carbonyl)-N-((1-methyl-2-oxoindolin-5-yl)methyl)piperidine-4-carboxamide], in assay [1], the AC50 stood at 404 nM. In addition, the IC50 in assay [2] was found to be 2360 nM.
Take `COc1cc(-c2cc(C(=O)N3CCC(C(=O)NCc4ccc5c(c4)CCS5(=O)=O)CC3)n[nH]2)c(Cl)cn1` [Example 237, 1-(5-(5-chloro-2-methoxypyridin-4-yl)-1H-pyrazole-3-carbonyl)-N-((1,1-dioxido-2,3-dihydrobenzo[b]thiophen-5-yl)methyl)piperidine-4-carboxamide]: in assay [1], the AC50 is 722 nM. In addition, the IC50 in assay [2] was over 10000 nM.
Take `COc1cc(-c2cc(C(=O)N3CCC(C(=O)NCc4nccc(C(F)F)n4)CC3)n[nH]2)c(Cl)cn1` [Example 238, 1-(5-(5-chloro-2-methoxypyridin-4-yl)-1H-pyrazole-3-carbonyl)-N-((4-(difluoromethyl)pyrimidin-2-yl)methyl)piperidine-4-carboxamide]: in assay [1], the AC50 is 839 nM. In addition, in assay [2], the IC50 was found to be 5160 nM.
The like results for `COc1cc(-c2cc(C(=O)N3CCC(C(=O)NCc4cccc(C(F)F)n4)CC3)n[nH]2)c(Cl)cn1` [Example 239, 1-(5-(5-chloro-2-methoxypyridin-4-yl)-1H-pyrazole-3-carbonyl)-N-((6-(difluoromethyl)pyridin-2-yl)methyl)piperidine-4-carboxamide] were, in that order, 246 nM and 1400 nM.
As for `COc1cc(-c2cc(C(=O)N3CCC(C(=O)NCc4ncc5c(n4)CCC5)CC3)n[nH]2)c(Cl)cn1` [Example 241, 1-(5-(5-chloro-2-methoxypyridin-4-yl)-1H-pyrazole-3-carbonyl)-N-((6,7-dihydro-5H-cyclopenta[d]pyrimidin-2-yl)methyl)piperidine-4-carboxamide], in assay [1], the AC50 was 880 nM. The IC50 in assay [2] came to 3480 nM.
The like results for `COc1cc(-c2cc(C(=O)N3CCC(C(=O)NCc4ccc5c(c4)C(C)(C)C(=O)N5)CC3)n[nH]2)c(Cl)cn1` [Example 242, 1-(5-(5-chloro-2-methoxypyridin-4-yl)-1H-pyrazole-3-carbonyl)-N-((3,3-dimethyl-2-oxoindolin-5-yl)methyl)piperidine-4-carboxamide] were, in that order, 74.2 nM and 1660 nM.
Turning to `COc1cc(-c2cc(C(=O)N3CCC(C(=O)NCc4c(F)ccc5[nH]cnc45)CC3)n[nH]2)c(Cl)cn1` [Example 243, 1-(5-(5-chloro-2-methoxypyridin-4-yl)-1H-pyrazole-3-carbonyl)-N-((5-fluoro-1H-benzo[d]imidazol-4-yl)methyl)piperidine-4-carboxamide], in assay [1], the AC50 is 25.8 nM. The IC50 in assay [2] came out at 414 nM.
`COc1cc(-c2cc(C(=O)N3CCC(C(=O)NCc4cc5ccccc5[nH]4)CC3)n[nH]2)c(Cl)cn1` [Example 250, N-((1H-indol-2-yl)methyl)-1-(5-(5-chloro-2-methoxypyridin-4-yl)-1H-pyrazole-3-carbonyl)piperidine-4-carboxamide]: the AC50 in assay [1] is 24.7 nM. Besides, in assay [2], the IC50 came to 430 nM.
As for `COc1cc(-c2cc(C(=O)N3CCC(C(=O)Nc4cccc(C)n4)CC3)n[nH]2)c(Cl)cn1` [Example 251, 1-(5-(5-chloro-2-methoxypyridin-4-yl)-1H-pyrazole-3-carbonyl)-N-(6-methylpyridin-2-yl)piperidine-4-carboxamide], in assay [1], the AC50 worked out at 254 nM. Besides, the IC50 in assay [2] was 1380 nM.
As for `COc1cc(-c2cc(C(=O)N3CCC(C(=O)NCc4nccc5[nH]ccc45)CC3)n[nH]2)c(Cl)cn1` [Example 254, N-((1H-pyrrolo[3,2-c]pyridin-4-yl)methyl)-1-(5-(5-chloro-2-methoxypyridin-4-yl)-1H-pyrazole-3-carbonyl)piperidine-4-carboxamide], the AC50 in assay [1] turned out to be 58.8 nM. Also, in assay [2], the IC50 was over 2000 nM.
The like results for `COc1cc(-c2cc(C(=O)N3[C@@H]4CC[C@H]3C[C@H](C(=O)NCc3ccc5[nH]nc(F)c5c3)C4)n[nH]2)c(F)cn1` [Example 258, (1R,3S,5S)—N-[(3-fluoro-1H-indazol-5-yl)methyl]-8-[5-(5-fluoro-2-methoxypyridin-4-yl)-1H-pyrazole-3-carbonyl]-8-azabicyclo[3.2.1]octane-3-carboxamide] were, in that order, 17 nM and 20 nM.
In the case of `COc1cc(-c2cc(C(=O)N3CCC(C(=O)Nc4cnc(C)c(C)n4)CC3)n[nH]2)c(Cl)cn1` [Example 260, 1-(5-(5-chloro-2-methoxypyridin-4-yl)-1H-pyrazole-3-carbonyl)-N-(5,6-dimethylpyrazin-2-yl)piperidine-4-carboxamide], the AC50 in assay [1] was 970 nM. The IC50 in assay [2] amounted to 4030 nM.
As for `COc1cc(-c2cc(C(=O)N3CCC(C(=O)Nc4cccc5[nH]ccc45)CC3)n[nH]2)c(Cl)cn1` [Example 261, 1-(5-(5-chloro-2-methoxypyridin-4-yl)-1H-pyrazole-3-carbonyl)-N-(1H-indol-4-yl)piperidine-4-carboxamide], in assay [1], the AC50 was determined as 78.4 nM. The IC50 in assay [2] was found to be 490 nM.
